# Measured values published in patent US20160045440A1, “FORMULATION OF AMORPHOUS CALCIUM L-5-METHYLTETRAHYDROFOLATE (L-5-MTHF-Ca)” (CHEMO RESEARCH, S.L., priority 2013, published 2016).
# Tests used:
# [1] = Stability of powder mixtures of amorphous calcium L-5-methylfolate with stabilizing agents (1:10) on storage; format: physicochemical; conditions: 5° C. for one month; ALC:stabilizing agent 1:10
# Experimental: Powder mixtures of amorphous calcium L-5-methylfolate with each of the stabilizing agents disclosed in the following table were prepared. In all the cases, the mixture contained a weight amount of calcium L-5-methylfolate to stabilizing agent of 1:10.
# [2] = Stability of amorphous calcium L-5-methylfolate and cysteine at weight ratios 1:0 to 1:33 on storage; format: physicochemical
# [3] = storage time of one month at 40° C.; cited from earlier work
compound,measurement,setting,value
"CN1c2c(nc(N)[nH]c2=O)NC[C@@H]1CNc1ccc(C(=O)N[C@@H](CCC(=O)[O-])C(=O)[O-])cc1.[Ca+2] [Amorphous Calcium L-5-methylfolate (ALC), N-{4-[[((6S)-2-amino-1,4,5,6,7,8-hexahydro-5-methyl-4-oxo-6-pteridinyl)methyl]amino]benzoyl}-L-glutamic acid, calcium salt]",Assay (%) of Calcium L-5-methylfolate that remains in the mixture,[1],91.02%
same,Related substances (%) D-Mefox,[1],0.50%
same,Related substances (%) HO-MeTHFA,[1],1.18%
same,Related substances (%) L-Mefox,[1],4.27%
same,Related substances (%) TOTAL impurities,[1],8.0%
same,Assay (%),[2]; 5° C. for 1 month,99.59%
same,Related substances (%) D-Mefox,[2]; 5° C. for 1 month,0.42%
same,Related substances (%) HO-MeTHFA,[2]; 5° C. for 1 month,1.80%
same,Related substances (%) L-Mefox,[2]; 5° C. for 1 month,2.52%
same,Related substances (%) TOTAL impurities,[2]; 5° C. for 1 month,5.59%
same,Assay (%),[2]; 5° C. for 3 months,96.39%
same,Related substances (%) D-Mefox,[2]; 5° C. for 3 months,0.32%
same,Related substances (%) HO-MeTHFA,[2]; 5° C. for 3 months,1.34%
same,Related substances (%) L-Mefox,[2]; 5° C. for 3 months,2.74%
same,Related substances (%) TOTAL impurities,[2]; 5° C. for 3 months,5.74%
same,Assay (%),[2]; 25° C./60% HR for 1 month,89.13%
same,Related substances (%) D-Mefox,[2]; 25° C./60% HR for 1 month,0.71%
same,Related substances (%) HO-MeTHFA,[2]; 25° C./60% HR for 1 month,1.75%
same,Related substances (%) L-Mefox,[2]; 25° C./60% HR for 1 month,4.68%
same,Related substances (%) TOTAL impurities,[2]; 25° C./60% HR for 1 month,9.19%
same,Assay (%),[2]; 25° C./60% HR for 3 months,84.03%
same,Related substances (%) D-Mefox,[2]; 25° C./60% HR for 3 months,0.57%
same,Related substances (%) HO-MeTHFA,[2]; 25° C./60% HR for 3 months,1.44%
same,Related substances (%) L-Mefox,[2]; 25° C./60% HR for 3 months,6.49%
same,Related substances (%) TOTAL impurities,[2]; 25° C./60% HR for 3 months,11.95%
same,Assay (%),[2]; 40° C./75% HR for 1 month,81.95%
same,Related substances (%) D-Mefox,[2]; 40° C./75% HR for 1 month,0.93%
same,Related substances (%) HO-MeTHFA,[2]; 40° C./75% HR for 1 month,1.84%
same,Related substances (%) L-Mefox,[2]; 40° C./75% HR for 1 month,8.97%
same,Related substances (%) TOTAL impurities,[2]; 40° C./75% HR for 1 month,15.57%
"CN1c2c(nc(N)[nH]c2=O)NC[C@@H]1CNc1ccc(C(=O)N[C@@H](CCC(=O)[O-])C(=O)[O-])cc1.[Ca+2] [Metafolin, Calcium L-5-methylfolate]",Metafolin that remains in the compositions obtained by granulation,[3],60%
